Measurements published in ChEMBL document CHEMBL6115025, “Discovery of Novel, Potent, Orally Bioavailable and Efficacious, Hypoxia-Inducible Factor Prolyl Hydroxylase Inhibitors for Hematopoietic Stem Cell Mobilization” (J Med Chem, 2025).

Key:
[1] = molecular target: Voltage-gated inwardly rectifying potassium channel KCNH2 (Homo sapiens, UniProt Q12809); assay: Inhibition of human ERG upto 100 uM; format: toxicity
[2] = molecular target: Egl nine homolog 1 (Homo sapiens, UniProt Q9GZT9); assay: Inhibition of PHD2 (unknown origin) using [1-14C]alphaKG as substrate assessed as substrate decarboxylation by measuring 14CO2 production incubated for 2 hrs by microplate reader analysis
Egl nine homolog 1, sequence (Q9GZT9 whole entry): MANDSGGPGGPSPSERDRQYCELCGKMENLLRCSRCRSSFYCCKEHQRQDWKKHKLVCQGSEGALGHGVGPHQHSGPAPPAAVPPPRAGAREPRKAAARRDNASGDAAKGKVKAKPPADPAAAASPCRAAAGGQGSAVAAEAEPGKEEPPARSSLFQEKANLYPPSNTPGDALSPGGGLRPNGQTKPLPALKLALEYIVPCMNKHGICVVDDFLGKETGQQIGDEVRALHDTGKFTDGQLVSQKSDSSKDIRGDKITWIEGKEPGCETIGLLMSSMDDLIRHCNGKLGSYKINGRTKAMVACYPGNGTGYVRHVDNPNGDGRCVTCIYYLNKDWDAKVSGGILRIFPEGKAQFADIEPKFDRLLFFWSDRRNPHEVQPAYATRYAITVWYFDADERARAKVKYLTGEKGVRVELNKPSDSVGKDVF

Voltage-gated inwardly rectifying potassium channel KCNH2, sequence (Q12809 whole entry): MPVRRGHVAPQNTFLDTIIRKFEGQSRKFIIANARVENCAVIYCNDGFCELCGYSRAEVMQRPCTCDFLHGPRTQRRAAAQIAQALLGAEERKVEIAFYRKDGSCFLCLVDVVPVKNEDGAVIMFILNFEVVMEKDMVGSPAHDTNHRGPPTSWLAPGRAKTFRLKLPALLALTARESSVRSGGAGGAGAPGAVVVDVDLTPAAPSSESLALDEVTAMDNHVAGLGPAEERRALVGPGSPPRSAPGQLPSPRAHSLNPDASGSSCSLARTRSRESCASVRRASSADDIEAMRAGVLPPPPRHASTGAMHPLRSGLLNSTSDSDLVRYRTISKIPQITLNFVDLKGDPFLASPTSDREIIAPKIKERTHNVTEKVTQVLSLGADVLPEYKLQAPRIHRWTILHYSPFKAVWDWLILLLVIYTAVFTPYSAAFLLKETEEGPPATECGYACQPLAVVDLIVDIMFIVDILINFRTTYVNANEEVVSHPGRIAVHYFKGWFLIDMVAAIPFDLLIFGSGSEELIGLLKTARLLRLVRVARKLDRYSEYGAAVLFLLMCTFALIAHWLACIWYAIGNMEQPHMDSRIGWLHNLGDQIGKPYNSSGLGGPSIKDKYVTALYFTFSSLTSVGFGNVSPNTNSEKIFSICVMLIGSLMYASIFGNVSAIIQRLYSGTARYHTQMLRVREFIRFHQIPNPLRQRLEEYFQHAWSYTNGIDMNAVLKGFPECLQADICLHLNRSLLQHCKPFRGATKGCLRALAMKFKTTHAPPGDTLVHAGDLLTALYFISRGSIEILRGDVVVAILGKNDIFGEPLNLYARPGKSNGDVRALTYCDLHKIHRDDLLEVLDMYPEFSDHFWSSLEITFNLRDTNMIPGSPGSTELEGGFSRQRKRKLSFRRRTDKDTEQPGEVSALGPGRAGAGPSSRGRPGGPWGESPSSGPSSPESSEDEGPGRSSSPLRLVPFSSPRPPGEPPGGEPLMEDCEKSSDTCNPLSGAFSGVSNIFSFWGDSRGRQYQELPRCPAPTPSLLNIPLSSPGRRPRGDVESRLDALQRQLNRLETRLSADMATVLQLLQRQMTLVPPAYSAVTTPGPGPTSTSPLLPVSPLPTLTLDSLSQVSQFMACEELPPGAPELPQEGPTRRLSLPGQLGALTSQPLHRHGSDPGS

IC50 [2] [nM]	Compound	inhibition (INH) [1]
	O=C(NCc1ccnnc1)c1ncc2c(=O)n(C3CCCCC3)ccc2c1O	Not_active
200	O=C(NCc1ccncc1)c1ncc2c(=O)n(Cc3ccccc3)ccc2c1O	
